# Source: the OligoGym collection
# Where “and” joins values, the source holds several entries; their conditions need not be identical. Identical values can stand only once. After the bases stand the sugars from the 5' end (letter, count) and the backbone: PS all phosphorothioate, else s phosphorothioate and o phosphodiester by linkage. Methylation of C is not given here. e = 2'-O-(2-methoxyethyl) (MOE); k = constrained ethyl (cEt); d = 2'-deoxy (DNA)
# Target: MALAT1
# Conditions: ASO, A431, 0.005 µM
row,Sequence,target mRNA inhibition
1,"GTTTCCTAGCTTGTCT (sugars k3 d10 k3, PS)",57%
2,"TAAAGTAGACCAACTA (sugars k3 d10 k3, PS)",14%
3,"TAAATAAGGAGACAGC (sugars k3 d10 k3, PS)",38%
4,"TAAATTGGTTCTGGTC (sugars k3 d10 k3, PS)",49%
5,"TAACCAACTTCCCCTT (sugars k3 d10 k3, PS)",16%
6,"TAACTAGGCTTTAAAT (sugars k3 d10 k3, PS)",14%
7,"TAAGCGAATGGCTTTG (sugars k3 d10 k3, PS)",7%
8,"TAAGGACAGCTAAGAT (sugars k3 d10 k3, PS)",24%
9,"TAAGTTGGTTTTAGTC (sugars k3 d10 k3, PS)",78% and 92%
10,"TAATCTCCCACCTGTC (sugars k3 d10 k3, PS)",7%
11,"TAATGGTTTTCTACAC (sugars k3 d10 k3, PS)",40%
12,"TAATGTAGTGTAACAT (sugars k3 d10 k3, PS)",29%
13,"TAATGTCAGCCCAGTA (sugars k3 d10 k3, PS)",7%
14,"TACACCCAGTGGCTCA (sugars k3 d10 k3, PS)",30%
15,"TACACCTCAGTACGAA (sugars k3 d10 k3, PS)",28%
16,"TACATGTTCCCACCCA (sugars k3 d10 k3, PS)",39%
17,"TACCGCACAGCTCGGG (sugars k3 d10 k3, PS)",20%
18,"TACCTTAACATCTTGT (sugars k3 d10 k3, PS)",14%
19,"TACGAAACTCCCCCAT (sugars k3 d10 k3, PS)",6%
20,"TACGAAAGTCCTTCAC (sugars k3 d10 k3, PS)",35%
21,"TACGACTGCTTAAAAC (sugars k3 d10 k3, PS)",5%
22,"TACTATATTTAAGGCC (sugars k3 d10 k3, PS)",1%
23,"TACTATCCCATCACTG (sugars k3 d10 k3, PS)",42%

row,Sequence,target mRNA inhibition
1,"TACTCCATGAAGAAGC (sugars k3 d10 k3, PS)",-26%
2,"TACTCTAATCACTGTC (sugars k3 d10 k3, PS)",15%
3,"TACTGAAGAGCATTGG (sugars k3 d10 k3, PS)",71%
4,"TACTTAAATTACTAGC (sugars k3 d10 k3, PS)",28%
5,"TAGACCAACTAAGCGA (sugars k3 d10 k3, PS)",-9%
6,"TAGAGAAGAATCCCCC (sugars k3 d10 k3, PS)",34%
7,"TAGAGGGCCTCTATTG (sugars k3 d10 k3, PS)",39%
8,"TAGCAGCGGGATCAGA (sugars k3 d10 k3, PS)",32%
9,"TAGCTTGACAAGCAAT (sugars k3 d10 k3, PS)",12%
10,"TAGCTTGGCCAAGTCT (sugars k3 d10 k3, PS)",19%
11,"TAGGATCCTCTACGCA (sugars k3 d10 k3, PS)",23%
12,"TAGGCTTTAAATGACG (sugars k3 d10 k3, PS)",26%
13,"TAGGTATGAGCTTCAG (sugars k3 d10 k3, PS)",4%
14,"TAGTACTATAGCATCT (sugars k3 d10 k3, PS)",49%
15,"TAGTGTAAAACATTGC (sugars k3 d10 k3, PS)",35%
16,"TAGTTCTTCGGTTAAA (sugars k3 d10 k3, PS)",6%
17,"TATAAGGTCAATAGTG (sugars k3 d10 k3, PS)",38%
18,"TATACTTCTCCAATAC (sugars k3 d10 k3, PS)",18%
19,"TATAGCTTGACAAGCA (sugars k3 d10 k3, PS)",19%
20,"TATCCTGATATTGGAT (sugars k3 d10 k3, PS)",24%
21,"TATCTTAGTAACCTAT (sugars k3 d10 k3, PS)",21%
22,"TATTCCAGGATTAATG (sugars k3 d10 k3, PS)",29%
23,"TATTGGTATTAATTCG (sugars k3 d10 k3, PS)",13%

row,Sequence,target mRNA inhibition
1,"TATTTAAGAACTCCAC (sugars k3 d10 k3, PS)",26%
2,"TATTTAGAGGGCCTCT (sugars k3 d10 k3, PS)",34%
3,"TATTTCGGCTTCTTTT (sugars k3 d10 k3, PS)",47% and 65%
4,"TATTTTAAACGGGTCA (sugars k3 d10 k3, PS)",3%
5,"TCAAAATCCTGAATGG (sugars k3 d10 k3, PS)",38%
6,"TCAAACTAAGCTACTA (sugars k3 d10 k3, PS)",-1%
7,"TCAAGGATGTATATAG (sugars k3 d10 k3, PS)",6%
8,"TCAAGTCAAGCTCCTG (sugars k3 d10 k3, PS)",3%
9,"TCACCAAATTGCACTC (sugars k3 d10 k3, PS)",21%
10,"TCACCGGAATTCGATC (sugars k3 d10 k3, PS)",-263%
11,"TCACGGATTTTTACCA (sugars k3 d10 k3, PS)",28%
12,"TCACTGCAAGGTCTCA (sugars k3 d10 k3, PS)",48%
13,"TCAGACAAGATTCATG (sugars k3 d10 k3, PS)",31%
14,"TCAGCCTTTATCACTC (sugars k3 d10 k3, PS)",13%
15,"TCAGTACGAAACTCCC (sugars k3 d10 k3, PS)",41%
16,"TCATCCTACCACTCCC (sugars k3 d10 k3, PS)",34%
17,"TCATGGATTTCAAGGT (sugars k3 d10 k3, PS)",51%
18,"TCCAGCATAAAGCTGA (sugars k3 d10 k3, PS)",-9%
19,"TCCAGTCCCTGAAGGT (sugars k3 d10 k3, PS)",12%
20,"TCCCATAACTGATCTG (sugars k3 d10 k3, PS)",31%
21,"TCCCATCACTGAAGCC (sugars k3 d10 k3, PS)",44%
22,"TCCCCAATGGAGGTAT (sugars k3 d10 k3, PS)",9%
23,"TCCCCCCCAAGATTGC (sugars k3 d10 k3, PS)",-3%

row,Sequence,target mRNA inhibition
1,"TCCCCCCCGCCTCAGT (sugars k3 d10 k3, PS)",16%
2,"TCCCCTTCAAGCACCG (sugars k3 d10 k3, PS)",19%
3,"TCCTCAATCCACTTGA (sugars k3 d10 k3, PS)",44%
4,"TCCTCCGTGTGGTTGC (sugars k3 d10 k3, PS)",18%
5,"TCCTTATTTAGAGGGC (sugars k3 d10 k3, PS)",29%
6,"TCCTTCTATAGTCTGA (sugars k3 d10 k3, PS)",14%
7,"TCGCCTCCTCCGTGTG (sugars k3 d10 k3, PS)",33%
8,"TCGGTGCCTTTAGTGA (sugars k3 d10 k3, PS)",29%
9,"TCGGTTAAAAATAGGT (sugars k3 d10 k3, PS)",16%
10,"TCTAACATAGTTCAAC (sugars k3 d10 k3, PS)",29%
11,"TCTATAGTCTGAAGAA (sugars k3 d10 k3, PS)",26%
12,"TCTCCCACCTGTCTAA (sugars k3 d10 k3, PS)",23%
13,"TCTGAACCGGAGCAGG (sugars k3 d10 k3, PS)",19%
14,"TCTGACTTTGTATGTA (sugars k3 d10 k3, PS)",48%
15,"TCTGATAACGAAGAGA (sugars k3 d10 k3, PS)",21%
16,"TCTGCGGCCCCCCAGT (sugars k3 d10 k3, PS)",25%
17,"TCTTACTGGGTCTGGC (sugars k3 d10 k3, PS)",45%
18,"TCTTCGGTTAAAAATA (sugars k3 d10 k3, PS)",19%
19,"TCTTGAAGACTGTTGC (sugars k3 d10 k3, PS)",44%
20,"TGAACCCCGTCCTGGA (sugars k3 d10 k3, PS)",3%
21,"TGAAGTGTACTATCCC (sugars k3 d10 k3, PS)",72% and 88%
22,"TGAATTACTTCCGTTA (sugars k3 d10 k3, PS)",36%
23,"TGAATTCAACTGGAAG (sugars k3 d10 k3, PS)",36%

row,Sequence,target mRNA inhibition
1,"TGACCCTACTGAAGAG (sugars k3 d10 k3, PS)",21%
2,"TGACGCAATTCTCCCT (sugars k3 d10 k3, PS)",33%
3,"TGAGAACTGCTCTAGT (sugars k3 d10 k3, PS)",35%
4,"TGAGATGGACATTGCC (sugars k3 d10 k3, PS)",74% and 92%
5,"TGAGTGTTCCTGCATG (sugars k3 d10 k3, PS)",36%
6,"TGATCCCAACTCATCT (sugars k3 d10 k3, PS)",14%
7,"TGCAAGGTCTCATACA (sugars k3 d10 k3, PS)",32%
8,"TGCACTCGCTCCTTCC (sugars k3 d10 k3, PS)",33%
9,"TGCATCGAGGTGAGGG (sugars k3 d10 k3, PS)",21%
10,"TGCCAATATTTGCCCC (sugars k3 d10 k3, PS)",20%
11,"TGCCATGGTTGATATT (sugars k3 d10 k3, PS)",37%
12,"TGCCCAAATTAATGCA (sugars k3 d10 k3, PS)",29%
13,"TGCCCTTAGCTTTTTG (sugars k3 d10 k3, PS)",56%
14,"TGCCGACCTCACGGAT (sugars k3 d10 k3, PS)",24%
15,"TGCCTACCACTCTAAG (sugars k3 d10 k3, PS)",-10%
16,"TGCCTTTAGGATTCTA (sugars k3 d10 k3, PS)",45%
17,"TGCCTTTAGGATTCTAGACA (sugars e5 d10 e5, PS)",39% and 51%
18,"TGCGCTGGCTGCCTCA (sugars k3 d10 k3, PS)",25%
19,"TGCGGTTTCCTCAAGC (sugars k3 d10 k3, PS)",26%
20,"TGCTACTCTTCTAAGT (sugars k3 d10 k3, PS)",19%
21,"TGCTGATAAACTCACT (sugars k3 d10 k3, PS)",46%
22,"TGGAAGCTCCTTCTAT (sugars k3 d10 k3, PS)",-19%
